What was measured:
[1] = system: HCT-116 human colon carcinoma cell line; assay: WST-1 cell viability assay, HCT-116; format: cell-based; details: WST-1, 24 h treatment, mean ± S.D of three independent experiments
Text: (§1) The synthesized compounds were screened for their cytotoxicity on five cancer cell lines, namely SK-OV-3, MCF-7, MDA-MB-231, HCT-116 and RKO, using a WST colorimetric assay. The assay principle is based upon the reduction of the tetrazolium salt WST-1 to formazan by cellular mitochondrial dehydrogenases present in viable cells. […] Among the latter compounds the benzohydrazide derivative 9a emerged with the lowest IC50 in this study against MCF-7 cells compared to 5-FU. […] Based on the fact that 9a had less cytotoxic effects on normal breast epithelial cells it was subjected to further studies.
(§2) The following cell lines were used for the screening stage, obtained from the American Type Culture Collection (ATCC, Manassas, VA, USA); SK-OV-3 (HTB-77), MCF-12A (ATCC CRL-10782), MDA-MB-231 (ATCC HTB-26), HCT-116 (CCL-247), RKO (CRL-2577) and sub-culturing of the above cell lines was conducted in 75 cm^2 flasks. The old culture media was removed and discarded after assessing the confluency of the cells and the cells were rinsed with 2–3 mL diluted trypsin (1×) (trypsin/EDTA solution consists of 0.025% trypsin and 0.01% EDTA in PBS), for about 5 minutes for complete detachment. The cells were observed under the inverted microscope until the cell layer is completely dispersed. 75 cm^2 flasks were prepared and 16 mL of DMEM media for SK-OV-3, MCF-7, MDA-MB-231, (DMEM 4500 mg glucose) and RPMI media for HCT-116 were added to each flask. The cells were aspirated gently and added to the flasks. DMEM 4500 mg/L high glucose with 10% FBS, 5% streptomycin and penicillin, RPMI 1640 (prepared by adding 5% heat-inactivated FCS and 2 mm glutamine) were used. DMEM was also used for MCF-12A cells with the addition of human epidermal growth factor 20 ng/mL, insulin 0.01 mg/mL and hydrocortisone 500 ng/mL.
(§3) The synthesized compounds were screened for their anti-proliferative activity using 5-FU (F6627-1G, Sigma-Aldrich, St. Louis, MO, USA) as reference compound. A concentration of 0.4% DMSO was used in all experiment after ensuring 100% viability of the cell lines with this concentration. A 25 mM stock concentration of all compounds was prepared for further studies and analysis.
(§4) Cells were trypsinized and placed in a 15 mL Falcon tube, the cells were centrifuged for 3 min at 1000 rpm. Trypsin is decanted using a sterile pipette and then the pellet is loosened by flicking the tube few times then 5–10 mL warm DMEM or RPMI were added to the Falcon tube and the pellet is resuspended. Cell count was done next by taking 10 μL of the suspension into the cell counting slide and read under 10× cells/mL. A cell stock of 50,000 cells/mL was prepared for the 96 wells. Cells (100 μL) were added to each well using a sterile pipette each time to ensure consistency. The experiment was planned ahead of time using excel sheet, 3–6 wells were reserved as blank media while 3–6 wells for vehicle (DMSO). The plate was incubated for 24 h for compound treatment step. DMEM media was used to prepare different dilutions of the compounds. The old DMEM media was removed from the wells using sterile pipette in the hood and the media was replaced with 100 μL media with each compound. The plate was incubated for 24 h. After 24 h incubation, WST-1 reagent (Sigma) was added to each well and then the plate was incubated for 1 h before measuring the absorbance using VICTOR™ Multilabel Plate Reader (Perkin Elmer, Beaconsfield, UK). The absorbance of the colored solution can be quantified by measuring at a certain wavelength (usually between 500–600 nm), in this experiment the first reading was conducted at 540 nm and the second reading at 690 nm for the reference wavelength. The percentage of cell viability was determined as the ratio of the absorbance of the sample vs the control. Three independent experiments were performed. […] 5-Florouracil (Sigma-Aldrich, F6627-1G) was used as reference standard.

[2] = system: RKO human colon carcinoma cell line; assay: WST-1 cell viability assay, RKO; format: cell-based; details: WST-1, 24 h treatment, mean ± S.D of three independent experiments
Text: as §1, §2, §3, §4

[3] = system: MCF-7 human breast adenocarcinoma cell line; assay: WST-1 cell viability assay, MCF-7; format: cell-based; details: WST-1, 24 h treatment, mean ± S.D of three independent experiments
Text: as §1, §2, §3, §4

[4] = system: MDA-MB-231 human breast adenocarcinoma cell line; assay: WST-1 cell viability assay, MDA-MB-231; format: cell-based; details: WST-1, 24 h treatment, mean ± S.D of three independent experiments
Text: as §1, §2, §3, §4

[5] = system: SK-OV-3 human ovarian carcinoma cell line; assay: WST-1 cell viability assay, SK-OV-3; format: cell-based; details: WST-1, 24 h treatment, mean ± S.D of three independent experiments
Text: as §1, §2, §3, §4

[6] = Homo sapiens, Colon carcinoma cell

| SMILES | IC50 ([1]; Homo sapiens, HCT-116) [µM] | IC50 [2, 6] [µM] | IC50 ([3]; Homo sapiens, MCF7, 24 h) [µM] | IC50 ([4]; Homo sapiens, MDA-MB-231) [µM] | IC50 ([5]; Homo sapiens, SK-OV-3) [µM] | melting point [°C] | IC50 [1] [µM] | IC50 [2] [µM] | IC50 [3] [µM] | IC50 [4] [µM] | IC50 [5] [µM] |
| --- | --- | --- | --- | --- | --- | --- | --- | --- | --- | --- | --- |
| COc1ccc(-c2cc(-c3ccc(OC)c(OC)c3)c(C#N)c(OC)n2)cc1OC [Compound 4a, 2-Methoxy-4,6-bis(3,4-dimethoxyphenyl)pyridine-3-carbonitrile] | 20.3 ± 0.85 | 13.2 ± 0.77 | 9.08 ± 0.37 | 32.1 ± 0.84 | 11.4 ± 0.72 |  |  |  |  |  |  |
| CCOc1nc(-c2ccc(OC)c(OC)c2)cc(-c2ccc(OC)c(OC)c2)c1C#N [Compound 4b, 2-Ethoxy-4,6-bis(3,4-dimethoxyphenyl)pyridine-3-carbonitrile] | 26.2 ± 1.22 | 19.8 ± 0.37 | 15.5 ± 0.46 | 40 ± 1.36 | 18.2 ± 0.98 |  |  |  |  |  |  |
| CCCOc1nc(-c2ccc(OC)c(OC)c2)cc(-c2ccc(OC)c(OC)c2)c1C#N [Compound 4c, 4,6-bis(3,4-Dimethoxyphenyl)-2-propoxypyridine-3-carbonitrile] | 10.1 ± 0.76 | 18.1 ± 1.03 | 12.3 ± 0.77 | 44.9 ± 1.74 | 22.1 ± 1.32 |  |  |  |  |  |  |
| COc1ccc(-c2cc(-c3ccc(OC)c(OC)c3)c(C#N)c(OCC(C)=O)n2)cc1OC [Compound 4d, 4,6-bis(3,4-Dimethoxyphenyl)-2-(2-oxopropoxy)pyridine-3-carbonitrile] | 13.1 ± 0.84 | 17.4 ± 0.44 | 20.3 ± 0.98 | 35.8 ± 0.96 | 25.2 ± 0.76 | 110 to 112 |  |  |  |  |  |
| CCOC(=O)COc1nc(-c2ccc(OC)c(OC)c2)cc(-c2ccc(OC)c(OC)c2)c1C#N [Compound 5, Ethyl 2-(3-Cyano-4,6-bis(3,4-dimethoxyphenyl)pyridin-2-yloxy)acetate] | 14.9 ± 0.98 | 22.1 ± 0.97 | 15.4 ± 0.94 | 25.1 ± 0.87 | 10.2 ± 0.44 |  |  |  |  |  |  |
| O=c1[nH]cc(F)c(=O)[nH]1 [Compound 5-FU, 5-Florouracil, reference compound] |  |  |  |  |  |  | 12.2 ± 1.1 | 20.2 ± 1.16 | 7.06 ± 0.91 | 15.1 ± 0.94 | 32.2 ± 1.03 |
| COc1ccc(-c2cc(-c3ccc(OC)c(OC)c3)c(C#N)c(OCC(=O)NNC(=S)SC)n2)cc1OC [Compound 7a, Methyl 2-[2-(3-cyano-4,6-bis(3,4-dimethoxyphenyl)pyridin-2-yloxy)acetyl]hydrazinecarbodithioate] | 23.2 ± 0.95 | 11.2 ± 0.91 | 11.2 ± 0.22 | 30.1 ± 0.88 | 9.01 ± 0.42 | 151 to 153 |  |  |  |  |  |
| CCSC(=S)NNC(=O)COc1nc(-c2ccc(OC)c(OC)c2)cc(-c2ccc(OC)c(OC)c2)c1C#N [Compound 7b, Ethyl 2-[2-(3-cyano-4,6-bis(3,4-dimethoxyphenyl)pyridin-2-yloxy)acetyl]hydrazinecarbodithioate] | 9.1 ± 0.97 | 15.2 ± 1.13 | 18.1 ± 1.76 | 37.9 ± 1.25 | 12.3 ± 0.88 | 144 to 146 |  |  |  |  |  |
| COc1ccc(-c2cc(-c3ccc(OC)c(OC)c3)c(C#N)c(OCC(=O)NNC(=S)SCCN3CCOCC3)n2)cc1OC [Compound 7c, 2-Morpholinoethyl-2-[2-(3-cyano-4,6-bis(3,4-dimethoxyphenyl)pyridin-2-yloxy)acetyl]hydrazinecarbo-dithioate] | 26.9 ± 0.97 | 20.3 ± 0.76 | 7.1 ± 0.44 | 31.7 ± 0.89 | 5.12 ± 0.11 | 158 to 160 |  |  |  |  |  |
| COc1ccc(-c2cc(-c3ccc(OC)c(OC)c3)c(C#N)c(OCC(=O)NNC(=S)SCCN3CCCCC3)n2)cc1OC [Compound 7d, 2-(Piperidin-1-yl)-ethyl-2-[2-(3-cyano-4,6-bis(3,4-dimethoxyphenyl)pyridin-2-yloxy)acetyl]hydrazinecarbo-dithioate] | 11.2 ± 1.26 | 25 ± 1.33 | 14.3 ± 0.95 | 35.5 ± 1.03 | 10.1 ± 0.98 | 160 to 162 |  |  |  |  |  |
| COc1ccc(C=NNC(=O)COc2nc(-c3ccc(OC)c(OC)c3)cc(-c3ccc(OC)c(OC)c3)c2C#N)cc1 [Compound 8a, 2-[3-Cyano-4,6-bis(3,4-dimethoxyphenyl)pyridin-2-yl]oxy-N'-(4-methoxybenzylidene)acetohydrazide] | 28.8 ± 0.31 | 12.32 ± 0.02 | 12 ± 0.96 | 25.3 ± 1.24 | 14.1 ± 0.95 | 163 to 164 |  |  |  |  |  |
| COc1ccc(C=NNC(=O)COc2nc(-c3ccc(OC)c(OC)c3)cc(-c3ccc(OC)c(OC)c3)c2C#N)cc1OC [Compound 8b, 2-[3-Cyano-4,6-bis(3,4-dimethoxyphenyl)pyridin-2-yl]oxy-N'-(3,4-dimethoxybenzylidene)acetohydrazide] | 25.2 ± 0.89 | 14.2 ± 0.91 | 9.31 ± 0.98 | 32.3 ± 0.87 | 10.2 ± 0.92 | 190 to 192 |  |  |  |  |  |
| COc1ccc(-c2cc(-c3ccc(OC)c(OC)c3)c(C#N)c(OCC(=O)NN=Cc3cc(OC)c(OC)c(OC)c3)n2)cc1OC [Compound 8c, 2-[3-Cyano-4,6-bis(3,4-dimethoxyphenyl)pyridin-2-yl]oxy-N'-(3,4,5-trimethoxybenzylidene)acetohydrazide] | 25.9 ± 0.83 | 16.3 ± 0.37 | 15.3 ± 0.74 | 20.3 ± 1.06 | 12.1 ± 0.98 | 232 to 234 |  |  |  |  |  |
| COc1ccc(C(=O)NNC(=O)COc2nc(-c3ccc(OC)c(OC)c3)cc(-c3ccc(OC)c(OC)c3)c2C#N)cc1 [Compound 9b, N'-[2-(3-cyano-4,6-bis(3,4-dimethoxyphenyl)pyridin-2-yloxy)acetyl]-4-methoxybenzo hydrazide] | 17.9 ± 0.74 | 9.95 ± 1.06 | 10.2 ± 0.92 | 19.3 ± 0.86 | 7.08 ± 0.16 | 170 to 172 |  |  |  |  |  |
| COc1ccc(-c2cc(-c3ccc(OC)c(OC)c3)c(C#N)c(OCC(=O)NNS(=O)(=O)c3ccccc3)n2)cc1OC [Compound 10a, N'-[2-(3-cyano-4,6-bis(3,4-dimethoxyphenyl)pyridin-2-yloxy)acety]benzenesulfohydrazide] | 21.8 ± 0.85 | 12.1 ± 1.26 | 13.4 ± 0.98 | 26.8 ± 0.33 | 11.34 ± 0.02 | 120 to 122 |  |  |  |  |  |
| COc1ccc(S(=O)(=O)NNC(=O)COc2nc(-c3ccc(OC)c(OC)c3)cc(-c3ccc(OC)c(OC)c3)c2C#N)cc1 [Compound 10b, N'-[2-(3-cyano-4,6-bis(3,4-dimethoxyphenyl)pyridin-2-yloxy)acetyl]-4-methoxybenzenesulfohydrazide] | 16.1 ± 1.07 | 15.7 ± 0.86 | 8.12 ± 0.47 | 22.4 ± 1.71 | 9.17 ± 0.38 | 190 to 192 |  |  |  |  |  |
| COc1ccc(-c2cc(-c3ccc(OC)c(OC)c3)c(C#N)c(OCc3nnc(S)o3)n2)cc1OC [Compound 14, 2-((5-Mercapto-1,3,4-oxadiazol-2-yl)methoxy)-4,6-bis(3,4-dimethoxyphenyl)pyridine-3-carbonitrile] | > 50 | > 50 | > 50 | > 50 | 30.3 ± 1.12 |  |  |  |  |  |  |

From article PMC6274259, “New 3-Cyano-2-Substituted Pyridines Induce Apoptosis in MCF 7 Breast Cancer Cells” (Molecules, 2016)
